The values that follow come from patent US20220127247A1, “N-(PYRIDIN-2-YL)PYRIDINE-SULFONAMIDE DERIVATIVES AND THEIR USE IN THE TREATMENT OF DISEASE” (NOVARTIS AG, priority 2019, published 2022).

Molecules are shown by their SMILES. pEC50: −log10 of the molar value.

The target in experiment [1] is T1, delF508-CFTR (Homo sapiens, UniProt P13569, DEL508-508).
T1 construct: expressed in transfected cells
Put plainly: delF508-CFTR functional activity in primary human bronchial epithelial cells (HBECs), Multi-Transepithelial Clamp Circuit (MTECC-24) assay. The class given is cell-based. To be noted: for pEC50: primary human delF508-CFTR bronchial epithelial cells, 24 h with compound, equivalent short circuit current (Ieq), forskolin plus potentiator, mean of at least two replicates, read-out: MTECC24-CFHBEC EC50; for MTECC24-CFHBEC Amax %: test compound added 24 h before assay, with potentiator (S)-3-amino-6-methoxy-N-(3,3,3-trifluoro-2-hydroxy-2-methylpropyl)-5-(trifluoromethyl)picolinamide, relative to 2 μM 3-(6-(1-(2,2-difluorobenzo[d][1,3]dioxol-5-yl)cyclopropane-1-carboxamido)-3-methylpyridin-2-yl)benzoic acid + 0.5 μM N-(2,4-di-tert-butyl-5-hydroxyphenyl)-4-oxo-1,4-dihydroquinoline-3-carboxamide. The text has this:
Measurement of delF508-CFTR Functional Activity in Primary Human Bronchial Epithelial Cells (HBECs) Using Multi-Transepithelial Clamp Circuit (MTECC-24) Assay
This assay measures the functional activity of the CFTR channel (Chloride ion transport) in patient derived primary human bronchial epithelial cells with forskolin activation and in the presence of the CFTR corrector/potentiator combination.
Primary human delF508-CFTR bronchial epithelial cells were and cultured according to previously established methods (Neuberger, T. et, al., Methods in Molecular Biology, 2011, 741, pp 39-54). Briefly, before thawing the HBEC cells, T25 flasks were coated with 2 mL of 3T3 conditioned media (MTI-GlobalStem, Cat #GSM9100) for at least 12 hours in 37° C. CO2 incubator. 1.7×10^5 cells were seeded into one T25 flask with 5 mL of HBE growth media (BEBM with supplements (Lonza, Cat #CC-3170) with 10 nM of retinoic acid (Sigma, Cat #R-2625) and 1% of PSA (Hyclone, Cat #SV30079.01). Media was changed every day till the cells were 100% confluent. Cells were seeded into T75 flasks (pre-coated with 5 mL of 3T3 conditioned media for more than 12 hrs) at 4.95×10^5 cells/T75 flask in 15 mL of HBE growth media. Flasks were fed everyday with fresh HBE growth media until the cells were confluent. 24-well transwell plates (Corning, Cat #3378) were coated with 3T3 conditioned media (70 μL on top of the filter, 350 μL to the bottom of the well) overnight in the 37° C. CO2 incubator. Cells were seeded in the pre-coated 24-well transwell plates at 1.7×10^5 cell/well with 700 μL of growth media at the bottom of the well and 200 μL of growth media at the top of the filter. After 24 hrs, cells were switched into HBE differentiation media ((DMEM/F12 (Gibco, Cat #11330-032) supplement with 2% Ultroser G (Pall, Cat #15950-017), 2% of Fetal Clone II (Hyclone, Cat #SH30066.03), 0.25% Bovine Brain Extract (Lonza, Cat #CC-4098), 1% of PSA, 2.5 μg/mL of Insulin (Sigma, Cat #19278), 20 nM of Hydrocortisone (Sigma, Cat #H0888), 500 nM of Triiodothyronine (Sigma, Cat #T6397), 2.5 μg/mL of Transferrin (Sigma, Cat #T8158), 250 nM of Ethanolamine (Sigma, Cat #E0135), 1.5 μM of Epinephrine (Sigma, Cat #E4250), 250 nM of Phosphoethanolamine (Sigma, Cat #P0503), 10 nM of retinoic acid)) with 200 μL on top of the filter (apical side) and 700 μL at the bottom of the well (basolateral side). Cells were fed every other day with the differentiation media. After 4 days, cells were exposed to air/liquid interface. Then cells were fed every other day for 4 weeks before fully differentiated.
Cells were washed with 3 mM DTT in PBS at 70 ul/well for 30 min at 37° C. 6 days before the assay. 3 days before the assay, cells were washed again with PBS at 70 ul/well for 30 min at 37° C. Then cells were treated with compound for 24 hrs before the assay.
Following 24 hr treatment with compound, cells were transferred into plates containing 750 ul of assay media on basolateral side and 250 ul on apical side (Assay medium: F-12 Coon's modified, 20 mM HEPES pH7.4 with TRIS Base, No FCS or bicarbonate). The plates wee then transferred to the heated plate compartments (basolateral buffer temperature ˜36.5° C. on the heating block) of the TECC24 system for 45 mins prior to measurements.
Modulators were added sequentially as follows while the TECC24 instrument recorded the equivalent short circuit current (Ieq):
Prior to dilution into assay medium the stocks were as follows: • Benzamil stock: 10 mM in DMSO • Forskolin Stock: 50 mM in DMSO • N-(2,4-di-tert-butyl-5-hydroxyphenyl)-1,4-dihydro-4-oxoquinoline-3-carboxamide: 50 mM in DMSO • (S)-3-amino-6-methoxy-N-(3,3,3-trifluoro-2-hydroxy-2-methylpropyl)-5-(trifluoromethyl)picolinamide: 50 mM stock 100% DMSO • Bumetanide stock: 20 mM in EtOH
The data was normalized using the median signal from wells treated with 0.1% DMSO as a baseline. Curve fitting and EC50 calculations were performed using the following equation: […]

Experiment [2] has as its target T1, delF508-CFTR. Put plainly: Measurement of delF508-CFTR-HRP surface expression in CFBE41o- cells. In kind it is cell-based. The conditions noted are these: for pEC50: HRP-tagged delF508-CFTR in CFBE41o- cells, 24 h with compound, luminescence, 10-point curve, top 10 μM; for Emax: efficacy relative to reference compound 3-(6-(1-(2,2-difluorobenzo[d][1,3]dioxol-5-yl)cyclopropane-1-carboxamido)-3-methylpyridin-2-yl)benzoic acid, CFBE41o- cells, 24 h, read-out: DelF508-CFTR-HRP Amax %. The essentials: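 CFBE41o- cells stably expressing delF508-CFTR with HRP in the fourth extracellular loop, induced with 500 ng/mL doxycycline for 48 h, then treated with compound (top 10 μM, 10-point 3-fold) for 24 h at 37° C. Surface HRP detected by luminescence with cell-impermeant substrate; EC50 from logistic fit of triplicates, normalized to lowest concentration.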

T1 sequence (P13569 with tags, fused parts or gaps DEL508-508): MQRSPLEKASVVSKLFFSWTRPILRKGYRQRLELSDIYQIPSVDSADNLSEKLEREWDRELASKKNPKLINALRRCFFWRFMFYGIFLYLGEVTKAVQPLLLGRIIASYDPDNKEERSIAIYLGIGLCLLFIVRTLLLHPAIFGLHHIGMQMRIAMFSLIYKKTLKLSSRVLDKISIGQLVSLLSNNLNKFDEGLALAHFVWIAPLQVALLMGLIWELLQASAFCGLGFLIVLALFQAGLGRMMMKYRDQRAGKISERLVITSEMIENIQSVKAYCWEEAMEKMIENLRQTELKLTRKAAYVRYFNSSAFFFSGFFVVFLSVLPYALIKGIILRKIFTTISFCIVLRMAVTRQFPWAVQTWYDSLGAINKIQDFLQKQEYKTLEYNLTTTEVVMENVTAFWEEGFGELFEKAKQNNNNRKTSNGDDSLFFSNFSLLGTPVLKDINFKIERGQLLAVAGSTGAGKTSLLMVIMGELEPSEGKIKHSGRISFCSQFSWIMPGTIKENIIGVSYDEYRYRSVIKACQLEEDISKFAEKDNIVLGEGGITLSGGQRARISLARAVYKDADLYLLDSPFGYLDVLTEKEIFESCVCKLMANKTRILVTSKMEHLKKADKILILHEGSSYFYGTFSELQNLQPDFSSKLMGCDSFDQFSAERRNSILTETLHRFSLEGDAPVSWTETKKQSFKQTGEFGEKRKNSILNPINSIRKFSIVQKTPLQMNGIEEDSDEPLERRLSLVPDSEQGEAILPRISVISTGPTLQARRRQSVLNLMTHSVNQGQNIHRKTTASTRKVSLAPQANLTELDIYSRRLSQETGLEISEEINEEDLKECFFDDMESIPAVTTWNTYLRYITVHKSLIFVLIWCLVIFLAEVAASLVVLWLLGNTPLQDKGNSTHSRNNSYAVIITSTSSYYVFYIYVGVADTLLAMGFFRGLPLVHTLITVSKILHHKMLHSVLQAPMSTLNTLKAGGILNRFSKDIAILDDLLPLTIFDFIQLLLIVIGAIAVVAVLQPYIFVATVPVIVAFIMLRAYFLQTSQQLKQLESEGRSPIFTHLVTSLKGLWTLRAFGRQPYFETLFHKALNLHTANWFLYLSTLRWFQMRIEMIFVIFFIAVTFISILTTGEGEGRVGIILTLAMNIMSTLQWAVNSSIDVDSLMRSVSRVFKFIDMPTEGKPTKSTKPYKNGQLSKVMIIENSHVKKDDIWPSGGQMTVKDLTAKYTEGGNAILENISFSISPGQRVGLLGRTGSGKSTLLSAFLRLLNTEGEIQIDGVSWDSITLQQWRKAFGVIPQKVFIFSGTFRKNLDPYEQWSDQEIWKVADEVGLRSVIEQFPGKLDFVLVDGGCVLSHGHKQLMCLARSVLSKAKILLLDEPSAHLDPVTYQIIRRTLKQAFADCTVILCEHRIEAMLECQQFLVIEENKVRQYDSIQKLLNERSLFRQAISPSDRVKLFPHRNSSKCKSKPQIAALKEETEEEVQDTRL

Turning to `CCc1ccc(F)cc1-c1nc(NS(=O)(=O)c2cccc(N(C)CCCC(=O)O)n2)ccc1C(F)(F)F` [Compound 93, 4-((6-(N-(6-(2-ethyl-5-fluorophenyl)-5-(trifluoromethyl)pyridin-2-yl)sulfamoyl)pyridin-2-yl)(methyl)amino)butanoic Acid], in experiment [1], the pEC50 was 7.40 and the “MTECC24-CFHBEC Amax %” value is 235%. The pEC50 in experiment [2] was 5.84.
In the case of `Cc1ccc(F)cc1-c1nc(NS(=O)(=O)c2cccc(N(CCCC(=O)O)C(C)C)n2)ccc1C(F)(F)F` [Compound 95, 4-((6-(N-(6-(5-fluoro-2-methylphenyl)-5-(trifluoromethyl)pyridin-2-yl)sulfamoyl)pyridin-2-yl)(isopropyl)amino)butanoic Acid], in experiment [1], the pEC50 was 7.62 and the “MTECC24-CFHBEC Amax %” value came to 148%. For the same molecule, the pEC50 in experiment [2] was 5.77.
As for `CCc1ccccc1-c1nc(NS(=O)(=O)c2cccc(N(CCCC(=O)O)C(C)C)n2)ccc1C(F)(F)F` [Compound 96, 4-((6-(N-(6-(2-ethylphenyl)-5-(trifluoromethyl)pyridin-2-yl)sulfamoyl)pyridin-2-yl)(isopropyl)amino)butanoic Acid], in experiment [1], the pEC50 is 8.70 and the “MTECC24-CFHBEC Amax %” value worked out at 202%. The pEC50 in experiment [2] is 6.14.
Taken in the same sequence, the figures for `CCN(CCCC(=O)O)c1cccc(S(=O)(=O)Nc2ccc(C(F)(F)F)c(-c3cc(F)ccc3C)n2)n1` [Compound 115, 4-(ethyl(6-(N-(6-(5-fluoro-2-methylphenyl)-5-(trifluoromethyl)pyridin-2-yl)sulfamoyl)pyridin-2-yl)amino)butanoic Acid] were 7.15, 146% and 5.82.
Taken in the same sequence, the figures for `CCCN(CCCC(=O)O)c1cccc(S(=O)(=O)Nc2ccc(C(F)(F)F)c(-c3cc(F)ccc3C)n2)n1` [Compound 131, 4-((6-(N-(6-(5-fluoro-2-methylphenyl)-5-(trifluoromethyl)pyridin-2-yl)sulfamoyl)pyridin-2-yl)(propyl)amino)butanoic Acid] were 6.49, 95% and 5.86.
The corresponding values for `CCc1ccccc1-c1nc(NS(=O)(=O)c2cccc(N3CCC[C@@H](CC(=O)O)C3)n2)ccc1C(F)(F)F` [Compound 85, (S)-2-(1-(6-(N-(6-(2-ethylphenyl)-5-(trifluoromethyl)pyridin-2-yl)sulfamoyl)pyridin-2-yl)piperidin-3-yl)acetic Acid] are 7.52, 152% and 5.85.
On to `Cc1c(F)cccc1-c1nc(NS(=O)(=O)c2cccc(N(C)CCCCC(=O)O)n2)ccc1C(F)(F)F` [Compound 67, 5-((6-(N-(6-(3-fluoro-2-methylphenyl)-5-(trifluoromethyl)pyridin-2-yl)sulfamoyl)pyridin-2-yl)(methyl)amino)pentanoic Acid], for which, in experiment [1], the negative-log EC50 (pEC50) is 6.79 and the “MTECC24-CFHBEC Amax %” value turned out to be 168%. The negative-log EC50 (pEC50) in experiment [2] is 5.79.
For the molecule `CCN(CCC(=O)O)c1cccc(S(=O)(=O)Nc2ccc(C(F)(F)F)c(-c3cccc(F)c3C)n2)n1` [Compound 56, 3-(ethyl(6-(N-(6-(3-fluoro-2-methylphenyl)-5-(trifluoromethyl)pyridin-2-yl)sulfamoyl)pyridin-2-yl)amino)propanoic Acid], in experiment [1], the negative-log EC50 (pEC50) was 6.43 and the “MTECC24-CFHBEC Amax %” value amounted to 131%. For the same molecule, in experiment [2], the pEC50 is 5.66 and the Emax turned out to be 906%.
Taken in the same sequence, the figures for `Cc1ccccc1-c1nc(NS(=O)(=O)c2cccc(N(C)CC3(C(=O)O)CCOCC3)n2)ccc1C(F)(F)F` [Compound 133, 4-((methyl(6-(N-(6-(o-tolyl)-5-(trifluoromethyl)pyridin-2-yl)sulfamoyl)pyridin-2-yl)amino)methyl)tetrahydro-2H-pyran-4-carboxylic Acid] were 6.05, 108%, 5.72 and 547%.
For `Cc1ccccc1-c1nc(NS(=O)(=O)c2cccc(N(CCC(=O)O)CC(C)C)n2)ccc1C(F)(F)F` [Compound 128, 3-(isobutyl(6-(N-(6-(o-tolyl)-5-(trifluoromethyl)pyridin-2-yl)sulfamoyl)pyridin-2-yl)amino)propanoic Acid], in experiment [1], the pEC50 is 7.51 and the “MTECC24-CFHBEC Amax %” value was 277%. Also, the negative logarithm of the EC50 (pEC50) in experiment [2] was 5.95.
Consider `Cc1ccccc1-c1nc(NS(=O)(=O)c2cccc(N(CCCC(=O)O)CCC(F)(F)F)n2)ccc1C(F)(F)F` [Compound 134, 4-((6-(N-(6-(o-tolyl)-5-(trifluoromethyl)pyridin-2-yl)sulfamoyl)pyridin-2-yl)(3,3,3-trifluoropropyl)amino)butanoic Acid], for which, in experiment [1], the pEC50 is 6.94 and the “MTECC24-CFHBEC Amax %” value is recorded as 189%. Further, in experiment [2], the negative-log EC50 (pEC50) is 5.86.
Consider `Cc1ccc(F)cc1-c1nc(NS(=O)(=O)c2cccc(N(CCC(=O)O)C(C)C)n2)ccc1C(F)(F)F` [Compound 135, 3-((6-(N-(6-(5-fluoro-2-methylphenyl)-5-(trifluoromethyl)pyridin-2-yl)sulfamoyl)pyridin-2-yl)(isopropyl)amino)propanoic Acid], for which, in experiment [1], the pEC50 is 7.19 and the “MTECC24-CFHBEC Amax %” value was found to be 292%. In experiment [2], the negative logarithm of the EC50 (pEC50) is 5.80.
`Cc1ccc(F)cc1-c1nc(NS(=O)(=O)c2cccc(N3CCC[C@@](C)(CC(=O)O)C3)n2)ccc1C(F)(F)F` (single isomer, unassigned) [Compound 64]: in experiment [1], the pEC50 is 8.70 and the “MTECC24-CFHBEC Amax %” value is listed as 107%. The negative-log EC50 (pEC50) in experiment [2] was 5.88.
The corresponding values for `CCN(CCC(=O)O)c1cccc(S(=O)(=O)Nc2ccc(C(F)(F)F)c(-c3ccccc3C)n2)n1` [Compound 71, 3-(ethyl(6-(N-(6-(o-tolyl)-5-(trifluoromethyl)pyridin-2-yl)sulfamoyl)pyridin-2-yl)amino)propanoic Acid] are 6.44, 137% and 5.63.
